Source: article PMC5589637, “New perspectives of cobalt tris(bipyridine) system: anti-cancer effect and its collateral sensitivity towards multidrug-resistant (MDR) cancers” (Oncotarget, 2017)

What was measured:
[1] = test system: HeLa (cervical cancer) cells; experiment: MTT cytotoxicity assay, HeLa; format: cell-based; conditions: 72 h
Protocol: (§1) All tested compounds were dissolved in DMSO at a final concentration of 50 mmol/L and stored at −20°C before use. Cytotoxicity was assessed by using the 3-(4,5-dimethylthiazol-2-yl)-2, 5-diphenyltetrazolium bromide (MTT) (5.0 mg/ml) assay as previously described. Briefly, 4×10^3 cells per well were seeded in 96-well plates before drug treatments. After overnight culture, the cells were then exposed to different concentrations of selected compounds ([…]) for 72 hours. Cells without drug treatment were used as control. Subsequently, MTT (10 μL) solution was added to each well and incubated at 37°C for 4 hours followed by the addition of 100 μL solubilization buffer (10%SDS in 0.01 mol/L HCl) and overnight incubation. A570 nm was then determined in each well on the next day. The percentage of cell viability was calculated using the following formula: Cell viability (%) = Atreated/Acontrol × 100. Data were obtained from three independent experiments.

[2] = test system: H1975 (EGFR mutant lung cancer) cells; experiment: MTT cytotoxicity assay, H1975; format: cell-based; conditions: 72 h
Protocol: as §1

[3] = test system: HepG2 (liver cancer) cells; experiment: MTT cytotoxicity assay, HepG2; format: cell-based; conditions: 72 h
Protocol: as §1

[4] = test system: Hep3B (liver cancer) cells; experiment: MTT cytotoxicity assay, Hep 3B; format: cell-based; conditions: 72 h
Protocol: as §1

[5] = test system: A549 taxol-resistant cancer cells; experiment: MTT cytotoxicity, taxol-resistant A549; format: cell-based
Text: (§2) All cells were obtained from the American Type Culture Collection (Rockville, MD, USA) unless otherwise specified. Immortalized wild-type and Atg7-deficient mouse embryonic fibroblasts (MEFs) were kindly provided by Professor Masaaki Komatsu (Juntendo University, School of Medicine, Japan). Taxol-resistant types of MCF-7, HCT-8, A549 cancers cells and cisplatin-resistant SGC7901 cancer cells were purchased from KeyGEN BioTECH, China. Cisplatin-sensitive or –resistant A2780, OV2008 and C13 cancer cells were kindly provided by Prof. Benjamin Tsang (Department of Obstetrics and Gynecology and Department of Cellular and Molecular Medicine, University of Ottawa, Canada). HCT116 p53^+/+ and p53^−/− isogenic human colon cancer cells were kindly provided by Professor Bert Vogelstein (Ludwig Center at Johns Hopkins, Howard Hughes Medical Institute, USA). All media were supplemented with 10% fetal bovine serum and antibiotics penicillin (50 U/ml) and streptomycin (50 μg/ml; Invitrogen, Paisley, Scotland, UK). All cell cultures were incubated at 37°C in a 5% humidified CO2 incubator.
as §1

[6] = test system: A2780 cisplatin-resistant cancer cells; experiment: MTT cytotoxicity, cisplatin-resistant A2780; format: cell-based
Text: as §2, §1

[7] = test system: SGC-7901 cisplatin-resistant cancer cells; experiment: MTT cytotoxicity, cisplatin-resistant SGC-7901; format: cell-based
Text: as §2, §1

[8] = test system: HCT116 p53^-/- colon cancer cells; experiment: MTT cytotoxicity, HCT116 p53-/-; format: cell-based, human
Text: as §2, §1

HeLa cancer cells [9] = experiment: Western blot of autophagy markers; format: cell-based
Protocol: (§3) Western blot analysis was carried out following standard methods. Cells were lysed with RIPA lysis buffer with protease and phosphatase inhibitor cocktails. Protein concentrations were determined using the Bio-Rad protein assay (Bio-Rad Laboratories, Inc., Hercules, CA, USA). After electrophoresis, the proteins from SDS/PAGE were electro-transferred to a Hybond enhanced chemiluminescence nitrocellulose membrane (Amersham Biosciences, NJ, USA), which was then blocked with 5% dried milk for 1 hour. After washing, the blot was incubated with the indicated primary antibodies overnight at 4°C. Detection was performed using appropriated HRP-conjugated secondary antibodies for 1 hour at RT followed by chemiluminescence (Invitrogen).

HeLa cancer cells [10] = experiment: Western blot of S phase cell cycle markers; format: cell-based; conditions: 24 h, 10 and 15 μM
Protocol: as §3

H1299 lung cancer cells = experiment: Cell invasion assay (ECMatrix chamber); format: cell-based, human; conditions: H1299, 72 h, sub-lethal doses, OD 560 nm
Protocol: The H1299 cancer cell invasion assay was performed in a Cell Invasion Chamber, a 24-well tissue culture plate with cell culture inserts that contain an 8 μm pore size polycarbonate membrane over a thin layer of dried ECMatrix^TM (CHEMICON). H1299 cells (15000 cells/well) were re-suspended in serum-free medium and incubated in an invasion chamber insert with different concentrations of cobalt complex 2 for 72 hours, while the lower chamber contained medium with 10% FBS. The cells invaded through the ECM layer to the bottom of the polycarbonate membrane were labelled with Cell Stain provided in the kit for 20 min at room temperature. The non-invading cells were gently removed from the interior of the inserts by using a cotton-tipped swab. The number of invaded cells was counted through the microscope and quantified by dissolving stained cells in 10% acetic acid (200 μL/well). The colorimetric reading of the solute mixture was determined by spectrophotometer at OD 560 nm.

[11] = test system: LLC-1 Lewis lung cancer xenograft; experiment: LLC-1 xenograft tumor model; format: in vivo; conditions: LLC-1 bearing C57BL/6 mice, 10 days
Protocol: The mice were maintained under specific pathogen-free condition in a 12-h light-dark cycle. 8-week-old C57BL/6 mice (female body weight: 22 ± 4 g and male body weight 25 ± 4g) were purchased from The Chinese University of Hong Kong. The animals were housed in a 12 hours light/dark cycles and temperature-controlled room and given ad libitum access to food and water. All of the experiments were carried out in accordance to the “Institutional Animal Care and User Committee guidelines” of the Macau University of Science and Technology. C57BL/6 were randomly grouped (10 mice per group) and intraperitoneal injected with 40 mg/kg or 80 mg/kg of cobalt complex 2 or 40 mg/kg or 80 mg/kg of water-soluble form of cobalt complex 2. Xenograft mouse model was constructed as previously described. LLC-1 Lewis lung cancer cells (1 × 10^6 cells) were subcutaneously injected in the right dorsal region of the mice. After tumors grew to about 100 mm^3, the mice were randomly divided into 3 groups: 1) the control group, 2) 40 or 80 mg/kg cobalt complex 2 group, and 3) 40 mg/kg cobalt complex 2W (water soluble form). […] The body weight of each mouse was recorded with the tumor volume determined by Vernier caliper using the formula of L × W^2 × 0.52, where Lis the longest diameter of tumor and W is the shortest diameter of tumor. […]

Work on `Cc1ccnc(-c2cc(C)ccn2)c1.Cc1ccnc(-c2cc(C)ccn2)c1.Cc1ccnc(-c2cc(C)ccn2)c1.F[P-](F)(F)(F)(F)F.F[P-](F)(F)(F)(F)F.F[P-](F)(F)(F)(F)F.[Co+3]` [complex 2, [Co^III(4,4’-Me2-bpy)3](PF6)3] yielded an IC50 [1] of 11.9 µM, an IC50 [2] of 8.84 µM and an IC50 [3] of 5.44 µM. For the same compound, the IC50 [4] was 3.7 µM, the IC50 ([5]; A549 taxol-resistant, MTT, 72 h) was 2.85 µM and the “Resistant Factor, A549” value ([5]; IC50 of taxol-resistant cells over IC50 of taxol-sensitive cells, A549) was 0.25. The IC50 ([6]; A2780 cisplatin-resistant, MTT, 72 h) was 10.7 µM, the “Resistant Factor, A2780” value ([6]; cisplatin-resistant over cisplatin-sensitive IC50, A2780) was 0.87 and the IC50 ([7]; SGC-7901 cisplatin-resistant, MTT, 72 h) was 12.6 µM. For the same compound, the “Resistant Factor, SGC-7901” value ([7]; cisplatin-resistant over cisplatin-sensitive IC50, SGC-7901) was 1.14, the IC50 ([8]; HCT116 p53-/-, MTT, 72 h) was 9.07 µM and the “Resistant Factor, HCT116 p53-/- vs p53+/+” value ([8]; IC50 p53-/- over IC50 p53+/+) was 0.59. For the same compound, the “protein expression of p62 and P-p70S6K” value (HeLa cancer cells [9]; 10μM and 15μM) was “prominently reduced”, the LC3-II protein conversion (HeLa cancer cells [9]; 24 h) was “dose-dependently increased the LC3-II protein conversion” and the “expression of beclin-1 protein” value (HeLa cancer cells [9]; 24 h, vs untreated control) was “upregulated”. For the same compound, the “protein level of cyclin A and E2F” value (HeLa cancer cells [10]) was “significant accumulation”, the “protein level of cyclin D and E, cdk4, and cdk2” value (HeLa cancer cells [10]) was “decreased” and the “cell invasion (absorbance signal of invaded cells)” value (H1299 lung cancer cells) was “dose-dependently decrease the absorbance signal”. The “reduction in tumor volume” value ([11]; IP 40 mg/kg/day or 80 mg/kg/day, P < 0.05) was “up to 50%” and the body weight ([11]; IP daily) was “no significant reduction in body weight”.
